Test results published in patent publication US8137978B2, “Diagnostic method for biomarkers of adverse coronary events” (Saint Louis University, priority 2009, dated 2012).

How the values were obtained:
[1] = system: eosinophil peroxidase in PMA-stimulated eosinophils; settings: physiological concentrations of NaCl and NaBr, FIG. 12
Protocol: Further studies have shown that reactive brominating species (RBS), produced by either MPO- or EPO-released by activated neutrophil or eosinophil, respectively, target plasmalogens. […] Bromide was the preferred substrate for eosinophil peroxidase and chloride was not appreciably used even at a 1000-fold molar excess. […] 2-BrHDA is preferentially produced in PMA-stimulated eosinophils (+PMA) incubated in the presence of physiological concentrations of NaCl and NaBr (FIG. 12). […] These findings may have implications in eosinophilic heart disease as well as pulmonary disease and some cancers, which include eosinophil infiltrations.

phagocyte = assay: 2-BrHDA phagocyte chemoattractant activity; type: cell-based; settings: phagocytes
HepG2 cells = assay: 2-chloropalmitic acid metabolism by HepG2 cells (GC-MS); type: in vitro ADME; settings: added to cell culture medium, FIG. 9 Panel A
From the text: Two other chlorinated lipids that have prognostic value are α-chloroadipic acid and α-ClFA that is complexed (stored) in triglyceride pools. α-ClFA is metabolized by either storage in triglyceride pools or is broken down in the liver (FIG. 8). In brief α-ClFA is omega oxidized to produce dicarboxylic acids that are shortened and eventually excreted in the urine. […] Concomitant with the loss of 2-chloropalmitic acid is the accumulation of the omega oxidation product, 2-chlorohexadecanedioc acid (Panel B of FIG. 9). Further metabolism of 2-chlorohexadecanedioc acid leads to 2-chlorotetradecanedioc acid (Panel C of FIG. 9) and eventually 2-chloroadipic acid (Panel D of FIG. 9). These metabolites were quantified using gas chromatography-mass spectrometry techniques employing conversion of the carboxylic acids and dicarboxylic acids to their pentafluorobenzyl ester derivatives and negative ion-chemical ionization mass spectrometry.

In the case of `[N-]=[N+]=[N-]` [azide], the “2-BrHDA production in the presence of the peroxidase inhibitor” value [1] is reported as 2-BrHDA was not produced.

`CCCCCCCCCCCCCCC(Br)C=O` (stereo not drawn) [2-BrHDA, 2-bromohexadecanal] was tested, and the chemoattractant activity (phagocyte) was “phagocyte chemoattractant”.

In the case of `CCCCCCCCCCCCCCC(Cl)C(=O)O` (stereo not drawn) [2-chlorohexadecanoic acid], the “2-chloropalmitic acid remaining in cell culture medium over time” value (HepG2 cells) is reported as “decreases in a time and concentration dependent manner”.
